Measurements published in ChEMBL document CHEMBL6153025, “Multidrug-resistant bacteria quorum-sensing inhibitors: A particular focus on Pseudomonasaeruginosa” (Eur J Med Chem, 2025).

system: Pseudomonas aeruginosa; assay: Anti-virulence effect in Pseudomonas aeruginosa PAO1 assessed as inhibition of rhamnolipid production at 10 uM relative to control; assay type: functional; set-up: scale not given: the % may be the effect or the level left; details: not given

Compound | Activity
O=C(CCCCCOc1cccc(C(F)(F)F)c1)NNC(=O)Cn1c(=O)oc2ccccc21 | 2.53%
O=C(CCCCCOc1ccc(F)cc1)NNC(=O)Cn1c(=O)oc2ccccc21 | 2.53%
O=C(CCCCCOc1ccc(Cl)cc1)NN1C(=O)CN(c2ccccc2O)C1=O | 2.76%
Cc1ccc(OCCCCCC(=O)NNC(=O)Cn2c(=O)oc3ccccc32)cc1 | 2.53%
CCCCCCCCC(=O)NNC(=O)Cn1c(=O)oc2ccccc21 | 6.34%
O=C(CCCCCOc1cccc(F)c1)NN1C(=O)CN(c2ccccc2O)C1=O | 2.76%
O=C(CCCCCOc1ccc(C(F)(F)F)cc1)NNC(=O)Cn1c(=O)oc2ccccc21 | 2.53%

system: Staphylococcus aureus; assay: Antibacterial activity against Methicillin-sensitive Staphylococcus aureus; assay type: functional; details: not given

Compound | MIC
O=C(CCCCCOc1ccc(Cl)cc1)NN1C(=O)CN(c2ccccc2O)C1=O | > 512 µg/mL
CCCCCCCCCCCC(=O)NN1C(=O)CN(c2ccccc2O)C1=O | > 512 µg/mL
O=C(CCCCCOc1cccc(F)c1)NN1C(=O)CN(c2ccccc2O)C1=O | > 512 µg/mL

system: Pseudomonas aeruginosa; assay: Antibiofilm activity against Pseudomonas aeruginosa PAO1 assessed as inhibition of biofilm formation at 32 ug/ml incubated for 8 hrs by crystal violet staining based assay relative to control; assay type: functional; set-up: scale not given: the % may be the effect or the level left; details: dose 32 µg/ml

Compound | Activity
[O-][S+](Cc1ccccc1)c1nnn(-c2ccccc2)n1 (stereo unspecified) | 1.64%
[O-][S+](Cc1ccccc1Cl)c1nnc(-c2ccccc2)o1 (stereo unspecified) | 40.6%
[O-][S+](Cc1ccc2c(O)cccc2c1)c1nnc(-c2ccccc2)o1 (stereo unspecified) | 40.88%
[O-][S+](Cc1ccc(C(F)(F)F)cc1)c1nnn(-c2ccccc2)n1 (stereo unspecified) | 1.64%
O=[N+]([O-])c1ccc(C[S+]([O-])c2nnc(-c3ccccc3)o2)cc1 (stereo unspecified) | 40.6%
[O-][S+](Cc1cccc(Cl)c1)c1nnc(-c2ccccc2)o1 (stereo unspecified) | 40.6%
[O-][S+](Cc1ccccc1Cl)c1nnn(-c2ccccc2)n1 (stereo unspecified) | 1.64%
[O-][S+](Cc1ccc(F)cc1)c1nnc(-c2ccccc2)o1 (stereo unspecified) | 23.17%
COc1cc(C[S+]([O-])c2nnc(-c3ccccc3)o2)cc(OC)c1 (stereo unspecified) | 21.94%
[O-][S+](Cc1ccc(Cl)cc1)c1nc2ccccc2s1 (stereo unspecified) | 40.6%
[O-][S+](Cc1cccc(Cl)c1)c1nnn(-c2ccccc2)n1 (stereo unspecified) | 1.64%
[O-][S+](Cc1ccc2c(O)cccc2c1)c1nnn(-c2ccccc2)n1 (stereo unspecified) | 1.64%
O=[N+]([O-])c1ccc(C[S+]([O-])c2nnn(-c3ccccc3)n2)cc1 (stereo unspecified) | 1.64%
[O-][S+](Cc1ccc(Br)cc1)c1nnc(-c2ccccc2)o1 (stereo unspecified) | 21.94%
Cc1ccc(C[S+]([O-])c2nnc(-c3ccccc3)o2)cc1 (stereo unspecified) | 40.6%
[O-][S+](Cc1ccc(Br)cc1)c1nnn(-c2ccccc2)n1 (stereo unspecified) | 1.64%
COc1cccc(C[S+]([O-])c2nnn(-c3ccccc3)n2)c1 (stereo unspecified) | 1.64%
COc1cccc(C[S+]([O-])c2nnc(-c3ccccc3)o2)c1 (stereo unspecified) | 21.94%
[O-][S+](Cc1ccc(Cl)cc1)c1nnn(-c2ccccc2)n1 (stereo unspecified) | 1.64%
COc1ccc(C[S+]([O-])c2nnc(-c3ccccc3)o2)cc1 (stereo unspecified) | 21.94%
[O-][S+](Cc1ccc(C(F)(F)F)cc1)c1nnc(-c2ccccc2)o1 (stereo unspecified) | 21.94%
Cc1ccc(C[S+]([O-])c2nnn(-c3ccccc3)n2)cc1 (stereo unspecified) | 1.64%
Clc1ccc(SSc2nc3ccccc3s2)cc1 | 40.6%
[O-][S+](Cc1ccccc1)c1nnc(-c2ccccc2)o1 (stereo unspecified) | 40.6%
[O-][S+](Cc1ccc(F)cc1)c1nnn(-c2ccccc2)n1 (stereo unspecified) | 1.64%

system: Bacillus subtilis; assay: Antibacterial activity against Bacillus subtilis; assay type: functional; details: not given

Compound | MIC
O=C(CCCCCOc1ccc(Cl)cc1)NN1C(=O)CN(c2ccccc2O)C1=O | > 512 µg/mL
CCCCCCCCCCCC(=O)NN1C(=O)CN(c2ccccc2O)C1=O | > 512 µg/mL
O=C(CCCCCOc1cccc(F)c1)NN1C(=O)CN(c2ccccc2O)C1=O | > 512 µg/mL

system: Bacillus pumilus; assay: Antibacterial activity against Bacillus pumilus; assay type: functional; details: not given

Compound | MIC
O=C(CCCCCOc1ccc(Cl)cc1)NN1C(=O)CN(c2ccccc2O)C1=O | > 512 µg/mL
CCCCCCCCCCCC(=O)NN1C(=O)CN(c2ccccc2O)C1=O | > 512 µg/mL
O=C(CCCCCOc1cccc(F)c1)NN1C(=O)CN(c2ccccc2O)C1=O | > 512 µg/mL

system: Pseudomonas aeruginosa; assay: Antibacterial activity against Pseudomonas aeruginosa; assay type: functional; details: not given

Compound | MIC
O=C(CCCCCOc1ccc(Cl)cc1)NN1C(=O)CN(c2ccccc2O)C1=O | > 512 µg/mL
CCCCCCCCCCCC(=O)NN1C(=O)CN(c2ccccc2O)C1=O | > 512 µg/mL
O=C(CCCCCOc1cccc(F)c1)NN1C(=O)CN(c2ccccc2O)C1=O | > 512 µg/mL

system: Pseudomonas aeruginosa; assay: Anti-virulence activity against Pseudomonas aeruginosa PAO1-L assessed as reduction in pyocyanin production at 10 uM incubated for 24 hrs by absorbance based analysis relative to control; assay type: functional; set-up: scale not given: the % may be the effect or the level left; details: not given

Compound | Activity
CCCCSSc1nc2ccccc2c(=O)n1-c1ccccc1 | 94%
CCCCCCSSc1nc2ccccc2c(=O)n1C1CC1 | 94%
C=CCSSc1nc2ccc(Cl)cc2c(=O)n1-c1ccccc1 | 94%
CCCCCCCCSSc1nc2ccccc2c(=O)n1-c1ccccc1 | 94%
CCCCCCCCSSc1nc2cccc(Cl)c2c(=O)n1-c1ccccc1 | 94%
CCCCCCSSc1nc2ccc(Cl)cc2c(=O)n1-c1ccccc1 | 94%
C=CCSSc1nc2ccccc2c(=O)n1-c1ccccc1 | 94%
CCCCSSc1nc2ccc(Cl)cc2c(=O)n1-c1ccccc1 | 94%
CCCCCCCCSSc1nc2ccc(Cl)cc2c(=O)n1-c1ccccc1 | 94%
CCCCSSc1nc2cccc(Cl)c2c(=O)n1-c1ccccc1 | 94%
C=CCSSc1nc2ccccc2s1 | 46%
CCCCCCSSc1nc2ccccc2c(=O)[nH]1 | 94%
CCCCCCSSc1nc2ccccc2c(=O)n1-c1ccccc1 | 94%
CCCCCCSSc1nc2cccc(Cl)c2c(=O)n1-c1ccccc1 | 94%
CCCCSSc1nc2ccccc2c(=O)[nH]1 | 94%
CCCCCCCCSSc1nc2ccccc2c(=O)n1C1CC1 | 94%
CCCCCCCCCc1nc2cc(Cl)ccc2c(=O)n1N | 46%
CCCCCCC1=NC(Cn2cnc3cc(Cl)ccc3c2=O)CS1 (stereo unspecified) | 46%
CCCCSSc1nc2ccccc2c(=O)n1C1CC1 | 94%

target: T1, Transcriptional activator protein LasR (Pseudomonas aeruginosa (strain ATCC 15692 / PAO1 / 1C / PRS 101 / LMG12228)) (UniProt P25084); assay: Inhibition of LasR-mediated quorum sensing system in Pseudomonas aeruginosa PAO1 at 128 ug/ml relative to control; details: dose 128.0 µg/ml
T1 sequence (whole entry): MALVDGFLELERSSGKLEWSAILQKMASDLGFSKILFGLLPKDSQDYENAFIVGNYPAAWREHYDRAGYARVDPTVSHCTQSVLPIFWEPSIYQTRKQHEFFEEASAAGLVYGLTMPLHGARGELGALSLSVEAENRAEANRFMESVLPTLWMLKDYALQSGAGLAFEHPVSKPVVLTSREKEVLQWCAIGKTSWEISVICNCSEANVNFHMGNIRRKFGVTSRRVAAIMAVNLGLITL

Compound | inhibition
CC(C)(C)c1cccc(OC(=O)CN2CCOCC2)c1 | 50.2%
O=C(CN1CCOCC1)Oc1ccccc1[N+](=O)[O-] | 50.2%
O=C(CN1CCOCC1)Oc1ccc([N+](=O)[O-])cc1 | 82.3%
O=C(Oc1cccc([N+](=O)[O-])c1)C(=O)N1CCOCC1 | 50.2%
O=C(OCCN1CCOCC1)c1cccc([N+](=O)[O-])c1 | 92.3%
CN1CCN(CC(=O)Oc2cccc([N+](=O)[O-])c2)CC1 | 78.8%
O=C(CCN1CCOCC1)Oc1cccc([N+](=O)[O-])c1 | 78.8%
O=C(CN1CCOCC1)Oc1cccc([N+](=O)[O-])c1 | 61.6%
O=C(CN1CCSCC1)Oc1cccc([N+](=O)[O-])c1 | 90.2%
O=C(CC1CCC(F)CC1)Oc1cccc([N+](=O)[O-])c1 (stereo unspecified) | 50.2%

system: not listed separately; assay: Inhibition of quorum sensing system in Pseudomonas aeruginosa PAO1 expressing lasB-gfp; details: not given

Compound | IC50
O=c1c2cc([N+](=O)[O-])ccc2ncn1CC(O)COc1ccccc1 (stereo unspecified) | 600 nM
O=c1c2c(Cl)cccc2ncn1CC(O)COc1ccccc1 (stereo unspecified) | 600 nM
O=c1c2cc(C(F)(F)F)ccc2ncn1CC(O)COc1ccccc1 (stereo unspecified) | 600 nM
O=c1c2cc(Cl)c(Cl)cc2ncn1CC(O)COc1ccccc1 (stereo unspecified) | 600 nM
N#CCc1ccc(NCC(O)Cn2cnc3ccc(Cl)cc3c2=O)cc1 (stereo unspecified) | 3200 nM
O=c1c2cc(Cl)cc(Cl)c2ncn1CC(O)COc1ccccc1 (stereo unspecified) | 600 nM
N#CCc1ccc(OCC(O)Cn2cnc3ccc(Cl)cc3c2=O)cc1 (stereo unspecified) | 3200 nM
O=c1c2ccc(Cl)cc2ncn1CC(O)COc1ccccc1 (stereo unspecified) | 600 nM
O=c1c2cccc(Cl)c2ncn1CC(O)COc1ccccc1 (stereo unspecified) | 600 nM
O=c1c2cc(Br)ccc2ncn1CC(O)COc1ccccc1 (stereo unspecified) | 800 nM

system: Escherichia coli; assay: Antibacterial activity against Escherichia coli; assay type: functional; details: not given

Compound | MIC
O=C(CCCCCOc1ccc(Cl)cc1)NN1C(=O)CN(c2ccccc2O)C1=O | > 512 µg/mL
CCCCCCCCCCCC(=O)NN1C(=O)CN(c2ccccc2O)C1=O | > 512 µg/mL
O=C(CCCCCOc1cccc(F)c1)NN1C(=O)CN(c2ccccc2O)C1=O | > 512 µg/mL

system: Pseudomonas aeruginosa; assay: Antibacterial activity against Pseudomonas aeruginosa ATCC 15442 assessed as reduction in bacterial cell growth incubated for 24 hrs by two fold serial microdilution method; assay type: functional; details: not given

Compound | MIC
CC(C)NCCCCCCCCNc1ccnc2cc(Cl)ccc12 | > 2 µM
NCCCCCCCCCCCCNc1ccnc2cc(C(F)(F)F)ccc12 | > 2 µM
Clc1ccc2c(NCCCCCCNCCc3ccccc3)ccnc2c1 | > 2 µM
CN(C)CCCCCCCCNc1ccnc2cc(Cl)ccc12 | > 2 µM
Clc1ccc2c(NCCCCCCNCc3ccccc3)ccnc2c1 | > 2 µM
Fc1ccc(CNCCCCCCCCNc2ccnc3cc(Cl)ccc23)cc1 | > 2 µM
Clc1cccc(CNCCCCCCCCNc2ccnc3cc(Cl)ccc23)c1 | > 2 µM
Clc1ccc2c(NCCCCCCCCNCc3ccccc3)ccnc2c1 | > 2 µM
Clc1ccc(CNCCCCCCCCNc2ccnc3cc(Cl)ccc23)cc1 | > 2 µM
Clc1ccc2c(NCCCCCCCCNCCc3ccccc3)ccnc2c1 | > 2 µM
Clc1ccc2c(NCCCCCCCCNCc3ccccc3Cl)ccnc2c1 | > 2 µM
Fc1cccc(CNCCCCCCCCNc2ccnc3cc(Cl)ccc23)c1 | > 2 µM
[N-]=[N+]=Nc1ccc(CNCCCCCCCCNc2ccnc3cc(Cl)ccc23)cc1 | > 2 µM
NCCCCCCCCCCCCNc1ccnc2cc(Cl)ccc12 | > 2 µM
Clc1ccc2c(NCCCCCCCCCCCCNCc3ccccc3)ccnc2c1 | > 2 µM
